Laboratory results taken from PubChem BioAssay (NCI).
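Cultured in 96-well plates, cells were exposed to test compound for 48 hours across five concentrations. Abbreviation: GI50, concentration required for 50% inhibition of growth. TGI marks complete inhibition of growth.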

Experiments:
Test in all cases: NCI anticancer screen, dose series, 48 h
[1] = test system: HL-60(TB) leukemia
[2] = test system: BT-549 breast
[3] = test system: SK-MEL-5 melanoma
[4] = test system: RXF 393 renal
[5] = test system: MDA-MB-231 breast
[6] = test system: T-47D breast
[7] = test system: SR leukemia
[8] = test system: A498 renal
[9] = test system: LOX IMVI melanoma
[10] = test system: HCT-116 colon
[11] = test system: HT29 colon
[12] = test system: OVCAR-5 ovarian
[13] = test system: K-562 leukemia
[14] = test system: OVCAR-3 ovarian
[15] = test system: HOP-62 NSCLC
[16] = test system: OVCAR-4 ovarian
[17] = test system: SNB-75 CNS
[18] = test system: NCI-H23 lung
[19] = test system: 786-0 renal
[20] = test system: PC-3 prostate
[21] = test system: UACC-257 melanoma
[22] = test system: MCF7 breast
[23] = test system: SK-MEL-28 melanoma
[24] = test system: SW-620 colon
[25] = test system: HOP-92 NSCLC
[26] = test system: NCI/ADR-RES ovarian
[27] = test system: RPMI-8226 leukemia
[28] = test system: SN12C renal
[29] = test system: SK-MEL-2 melanoma
[30] = test system: U251 CNS
[31] = test system: A549 NSCLC
[32] = test system: SF-295 CNS
[33] = test system: SNB-19 CNS
[34] = test system: DU-145 prostate
[35] = test system: MDA-MB-468 breast
[36] = test system: NCI-H460 lung
[37] = test system: EKVX NSCLC
[38] = test system: SF-539 CNS
[39] = test system: OVCAR-8 ovarian
[40] = test system: HS 578T breast
[41] = test system: UACC-62 melanoma
[42] = test system: UO-31 renal
[43] = test system: HCT-15 colon
[44] = test system: CCRF-CEM leukemia
[45] = test system: ACHN renal
[46] = test system: MOLT-4 leukemia
[47] = test system: MDA-MB-435
[48] = test system: IGROV1 ovarian
[49] = test system: CAKI-1 renal
[50] = test system: SF-268 CNS
[51] = test system: KM12 colon
[52] = test system: NCI-H522 lung
[53] = test system: M14 melanoma
[54] = test system: NCI-H226 lung
[55] = test system: MALME-3M melanoma
[56] = test system: HCC-2998 colon
[57] = test system: TK-10 renal
[58] = test system: SK-OV-3 ovarian
[59] = test system: COLO 205 colon

For `Clc1ccc(CNc2nc(SCCN3CCOCC3)nc3c2cnn3CC(Cl)c2ccc(Br)cc2)cc1` (stereo not drawn), which GI50 [1] is on record?
Its GI50 is 2.81 µM.

What about the TGI [1] of the same molecule?
The TGI was 26.8 µM.

And the GI50 [2]?
The GI50 was 18.4 µM.

What about the TGI [2] of the same molecule?
The TGI was 94.6 µM.

And the GI50 [3]?
Its GI50 is 7.66 µM.

What about the TGI [3] of the same molecule?
The TGI was 21 µM.

And the GI50 [4]?
The GI50 was 1.72 µM.

What about the TGI [4] of the same molecule?
Its TGI is 8.87 µM.

And the GI50 [5]?
The GI50 was 9.03 µM.

And the TGI [5]?
Its TGI is over 100 µM.

What about the GI50 [6] of the same molecule?
Its GI50 is 3.05 µM.

What about the TGI [6] of the same molecule?
Its TGI is over 100 µM.

And the GI50 [7]?
The GI50 was 1.68 µM.

And the TGI [7]?
The TGI was 5.63 µM.

And the GI50 [8]?
The GI50 was 54.1 µM.

What about the TGI [8] of the same molecule?
The TGI was over 100 µM.

What about the GI50 [9] of the same molecule?
Its GI50 is 4.49 µM.

What about the TGI [9] of the same molecule?
The TGI was over 100 µM.

And the GI50 [10]?
Its GI50 is 3.81 µM.

What about the TGI [10] of the same molecule?
The TGI was over 100 µM.

What about the GI50 [11] of the same molecule?
The GI50 was 1.91 µM.

What about the TGI [11] of the same molecule?
The TGI was 4.04 µM.

And the GI50 [12]?
The GI50 was over 100 µM.

What about the TGI [12] of the same molecule?
Its TGI is over 100 µM.

What about the GI50 [13] of the same molecule?
The GI50 was 2.85 µM.

What about the TGI [13] of the same molecule?
Its TGI is over 100 µM.

And the GI50 [14]?
Its GI50 is 9.59 µM.

What about the TGI [14] of the same molecule?
Its TGI is over 100 µM.

And the GI50 [15]?
The GI50 was 63 µM.

And the TGI [15]?
The TGI was over 100 µM.

What about the GI50 [16] of the same molecule?
Its GI50 is 5.3 µM.

And the TGI [16]?
The TGI was over 100 µM.

And the GI50 [17]?
The GI50 was 4.65 µM.

What about the TGI [17] of the same molecule?
The TGI was over 100 µM.

And the GI50 [18]?
Its GI50 is 7.84 µM.

And the TGI [18]?
The TGI was over 100 µM.

And the GI50 [19]?
The GI50 was 5.62 µM.

What about the TGI [19] of the same molecule?
Its TGI is over 100 µM.

And the GI50 [20]?
Its GI50 is 4.3 µM.

And the TGI [20]?
The TGI was over 100 µM.

And the GI50 [21]?
Its GI50 is 29.9 µM.

And the TGI [21]?
Its TGI is over 100 µM.

And the GI50 [22]?
Its GI50 is 3.45 µM.

And the TGI [22]?
Its TGI is over 100 µM.

What about the GI50 [23] of the same molecule?
Its GI50 is 14 µM.

And the TGI [23]?
Its TGI is over 100 µM.

What about the GI50 [24] of the same molecule?
Its GI50 is 6.11 µM.

And the TGI [24]?
The TGI was 91.7 µM.

And the GI50 [25]?
The GI50 was 8.71 µM.

What about the TGI [25] of the same molecule?
Its TGI is over 100 µM.

What about the GI50 [26] of the same molecule?
The GI50 was 4.14 µM.

And the TGI [26]?
The TGI was over 100 µM.

And the GI50 [27]?
The GI50 was 3.52 µM.

What about the TGI [27] of the same molecule?
The TGI was over 100 µM.

What about the GI50 [28] of the same molecule?
Its GI50 is 6.14 µM.

What about the TGI [28] of the same molecule?
Its TGI is over 100 µM.

What about the GI50 [29] of the same molecule?
Its GI50 is 13 µM.

And the TGI [29]?
Its TGI is 63.1 µM.

And the GI50 [30]?
Its GI50 is 5.35 µM.

What about the TGI [30] of the same molecule?
Its TGI is over 100 µM.

And the GI50 [31]?
The GI50 was 4.18 µM.

What about the TGI [31] of the same molecule?
The TGI was over 100 µM.

What about the GI50 [32] of the same molecule?
Its GI50 is 3.91 µM.

What about the TGI [32] of the same molecule?
The TGI was over 100 µM.

And the GI50 [33]?
Its GI50 is 8.34 µM.

What about the TGI [33] of the same molecule?
The TGI was over 100 µM.

What about the GI50 [34] of the same molecule?
Its GI50 is 46.4 µM.

What about the TGI [34] of the same molecule?
Its TGI is over 100 µM.

And the GI50 [35]?
The GI50 was 3.3 µM.

And the TGI [35]?
Its TGI is 18.9 µM.

And the GI50 [36]?
The GI50 was 4.57 µM.

And the TGI [36]?
Its TGI is over 100 µM.

And the GI50 [37]?
Its GI50 is 4.55 µM.

What about the TGI [37] of the same molecule?
Its TGI is over 100 µM.

And the GI50 [38]?
The GI50 was 4.37 µM.

And the TGI [38]?
Its TGI is over 100 µM.

What about the GI50 [39] of the same molecule?
The GI50 was 17.9 µM.

What about the TGI [39] of the same molecule?
Its TGI is over 100 µM.

And the GI50 [40]?
Its GI50 is 9.59 µM.

What about the TGI [40] of the same molecule?
The TGI was over 100 µM.

What about the GI50 [41] of the same molecule?
The GI50 was 11.7 µM.

What about the TGI [41] of the same molecule?
Its TGI is over 100 µM.

What about the GI50 [42] of the same molecule?
Its GI50 is 3.65 µM.

And the TGI [42]?
The TGI was over 100 µM.

What about the GI50 [43] of the same molecule?
The GI50 was 3.03 µM.

What about the TGI [43] of the same molecule?
The TGI was 11 µM.

What about the GI50 [44] of the same molecule?
Its GI50 is 3.85 µM.

And the TGI [44]?
Its TGI is over 100 µM.

And the GI50 [45]?
Its GI50 is 4.19 µM.

What about the TGI [45] of the same molecule?
Its TGI is over 100 µM.

What about the GI50 [46] of the same molecule?
Its GI50 is 2.62 µM.

And the TGI [46]?
Its TGI is 8.27 µM.

And the GI50 [47]?
Its GI50 is 6.65 µM.

What about the TGI [47] of the same molecule?
The TGI was over 100 µM.

And the GI50 [48]?
The GI50 was 65.4 µM.

What about the TGI [48] of the same molecule?
The TGI was over 100 µM.

And the GI50 [49]?
The GI50 was 5.45 µM.

What about the TGI [49] of the same molecule?
Its TGI is over 100 µM.

And the GI50 [50]?
The GI50 was 7.43 µM.

What about the TGI [50] of the same molecule?
The TGI was over 100 µM.

What about the GI50 [51] of the same molecule?
Its GI50 is 5.39 µM.

What about the TGI [51] of the same molecule?
Its TGI is over 100 µM.

What about the GI50 [52] of the same molecule?
Its GI50 is 6.17 µM.

What about the TGI [52] of the same molecule?
Its TGI is over 100 µM.

And the GI50 [53]?
Its GI50 is 6.01 µM.

And the TGI [53]?
The TGI was over 100 µM.

And the GI50 [54]?
Its GI50 is 5.68 µM.

What about the TGI [54] of the same molecule?
The TGI was over 100 µM.

And the GI50 [55]?
Its GI50 is 3.94 µM.

What about the TGI [55] of the same molecule?
The TGI was 28.9 µM.

And the GI50 [56]?
Its GI50 is 4.4 µM.

What about the TGI [56] of the same molecule?
The TGI was over 100 µM.

What about the GI50 [57] of the same molecule?
The GI50 was 31.9 µM.

What about the TGI [57] of the same molecule?
Its TGI is over 100 µM.

What about the GI50 [58] of the same molecule?
Its GI50 is over 100 µM.

What about the TGI [58] of the same molecule?
The TGI was over 100 µM.

And the GI50 [59]?
Its GI50 is 5.71 µM.

What about the TGI [59] of the same molecule?
Its TGI is 32 µM.
